Values of other authors as cited in patent US7429390B2, “Stable pharmaceutical compositions, processes for making the same and methods of their use” (priority 2007, dated 2008).
Like-named read-outs stand apart in the source and are kept apart here.

CNC(=C[N+](=O)[O-])NCCSCc1ccc(CN(C)C)o1 [compound of Formula I, N-[2-[[[5-(dimethylamino)methyl-2-furanyl]methyl]thio]ethyl]-N′-methyl-2-nitro-1,1-ethenediamine]
time to symptomatic relief (GERD, after starting therapy with 150 mg b.i.d.): ≤ 24 h
time to symptomatic relief of heartburn (endoscopically diagnosed erosive esophagitis, therapy initiation with 150 mg b.i.d.): ≤ 24 h
time in which most patients heal (short-term treatment of active duodenal ulcer): ≤ 4 weeks
time in which most patients heal (short-term treatment of active, benign gastric ulcer): ≤ 6 weeks
